In ChEMBL document CHEMBL4680314, “Discovery of potent glycogen synthase kinase 3/cholinesterase inhibitors with neuroprotection as potential therapeutic agent for Alzheimer's disease” (Bioorg Med Chem, 2021):

What was measured:
Cholinesterase = Cholinesterase (Homo sapiens, UniProt P06276); experiment: Inhibition of human BChE using butyrylthiocholineiodide as substrate incubated for 10 mins by Ellman's method
in vitro = conditions: PAMPA
Description: Effective permeability of compound in PBS/EtOH buffer (7:3) at 25 ug/ml incubated for 18 hrs by PAMPA-BBB assay

[1] = target: Glycogen synthase kinase-3 beta (Homo sapiens, UniProt P49841); experiment: biochemical
Description: Inhibition of recombinant human N-terminal His6-tagged GSK3beta H350L mutant expressed in baculovirus infected Sf21 cells using prephosphorylated polypeptide as substrate incubated for 1 min followed by substrate addition and measured after 30 mins by Kinase-Glo luminescence assay

Acetylcholinesterase = Acetylcholinesterase (Homo sapiens, UniProt P22303); experiment: Inhibition of human recombinant AChE expressed in HEK293 cells using acetylthiocholine iodide as substrate incubated for 10 mins by Ellman's method; format: cell-based
Acetylcholinesterase, sequence (P22303 whole entry): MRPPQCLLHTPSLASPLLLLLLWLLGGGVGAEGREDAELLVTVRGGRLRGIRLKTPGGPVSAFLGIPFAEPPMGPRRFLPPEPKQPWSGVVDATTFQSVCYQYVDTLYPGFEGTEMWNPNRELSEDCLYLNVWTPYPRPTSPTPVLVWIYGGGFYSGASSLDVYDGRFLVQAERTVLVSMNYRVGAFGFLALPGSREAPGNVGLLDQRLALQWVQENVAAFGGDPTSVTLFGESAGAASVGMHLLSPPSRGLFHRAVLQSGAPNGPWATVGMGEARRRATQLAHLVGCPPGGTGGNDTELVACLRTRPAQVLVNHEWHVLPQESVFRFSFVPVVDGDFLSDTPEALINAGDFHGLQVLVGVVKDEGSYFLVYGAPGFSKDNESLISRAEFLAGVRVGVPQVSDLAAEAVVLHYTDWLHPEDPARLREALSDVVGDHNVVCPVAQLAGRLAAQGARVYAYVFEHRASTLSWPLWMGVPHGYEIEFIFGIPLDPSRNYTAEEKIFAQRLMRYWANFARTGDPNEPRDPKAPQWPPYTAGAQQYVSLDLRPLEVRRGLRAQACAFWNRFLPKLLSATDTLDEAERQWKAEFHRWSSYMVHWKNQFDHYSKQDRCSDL

Glycogen synthase kinase-3 beta, sequence (P49841 whole entry): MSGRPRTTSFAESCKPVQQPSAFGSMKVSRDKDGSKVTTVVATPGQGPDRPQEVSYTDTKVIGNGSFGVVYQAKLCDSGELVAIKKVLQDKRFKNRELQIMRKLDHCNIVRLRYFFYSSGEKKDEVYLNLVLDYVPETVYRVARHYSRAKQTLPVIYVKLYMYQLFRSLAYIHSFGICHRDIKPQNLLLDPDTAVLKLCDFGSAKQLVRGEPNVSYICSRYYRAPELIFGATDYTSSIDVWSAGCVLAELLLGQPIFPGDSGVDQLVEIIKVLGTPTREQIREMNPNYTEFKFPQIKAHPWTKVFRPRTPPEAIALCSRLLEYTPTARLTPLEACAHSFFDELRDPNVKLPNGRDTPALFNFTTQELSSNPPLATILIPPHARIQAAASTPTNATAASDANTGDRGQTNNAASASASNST
Cholinesterase, sequence (P06276 whole entry): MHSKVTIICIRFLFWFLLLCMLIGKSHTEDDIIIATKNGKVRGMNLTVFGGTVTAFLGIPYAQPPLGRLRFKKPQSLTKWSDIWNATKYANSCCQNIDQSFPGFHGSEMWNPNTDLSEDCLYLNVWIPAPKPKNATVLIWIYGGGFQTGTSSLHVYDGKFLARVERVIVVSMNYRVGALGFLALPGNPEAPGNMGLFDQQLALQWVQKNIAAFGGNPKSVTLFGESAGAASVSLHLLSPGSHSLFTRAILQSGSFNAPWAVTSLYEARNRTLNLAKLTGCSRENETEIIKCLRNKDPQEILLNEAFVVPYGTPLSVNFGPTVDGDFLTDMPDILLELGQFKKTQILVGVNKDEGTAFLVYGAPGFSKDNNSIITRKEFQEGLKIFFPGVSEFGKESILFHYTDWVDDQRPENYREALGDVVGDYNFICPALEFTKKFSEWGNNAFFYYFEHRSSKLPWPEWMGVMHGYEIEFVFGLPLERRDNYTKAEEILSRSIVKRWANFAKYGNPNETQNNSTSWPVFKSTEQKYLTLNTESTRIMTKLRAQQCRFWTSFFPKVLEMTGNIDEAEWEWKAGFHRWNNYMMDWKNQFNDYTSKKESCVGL

Row | Structure (SMILES) | IC50 (Cholinesterase) [µM] | Papp at 18 h, 25 ug/ml (in vitro) [×10⁻⁶ cm/s] | IC50 [1] [µM] | IC50 (Acetylcholinesterase) [µM]
1 | NC(=O)c1sc(-c2ccnc(NC(=O)C3CC3)c2)nc1OCCC1CCN(Cc2c(F)cccc2F)CC1 | 1.9 | 6.8 | 0.005 | 19.5
2 | NC(=O)c1sc(-c2ccnc(NC(=O)C3CC3)c2)nc1OCCC1CCN(Cc2ccccc2)CC1 | 15.3 | 8.8 | 0.019 | 0.73
3 | CNC(=O)c1sc(-c2ccnc(NC(=O)C3CC3)c2)nc1OCC1CCN(Cc2ccc(Br)cc2)CC1 | 68 |  | 0.026 | > 1000
4 | COc1cc2c(cc1OC)C(=O)C(CC1CCN(Cc3ccccc3)CC1)C2 (stereo not given) [DONEPEZIL] |  |  | > 1 | 
5 | NC(=O)c1sc(-c2ccnc(NC(=O)C3CC3)c2)nc1OCCC1CCN(Cc2ccccn2)CC1 | 86.1 |  | 0.193 | 6.6
6 | NC(=O)c1sc(-c2ccnc(NC(=O)C3CC3)c2)nc1OCCC1CCN(Cc2ccc(F)cc2)CC1 | 17.6 | 8.2 | 0.038 | 4.5
7 | CNC(=O)c1sc(-c2ccnc(NC(=O)C3CC3)c2)nc1OCC1CCN(Cc2cccc([N+](=O)[O-])c2)CC1 | 9 |  | 0.005 | 6
8 | CNC(=O)c1sc(-c2ccnc(NC(=O)C3CC3)c2)nc1OC1CCN(Cc2ccccc2)CC1 | 31 |  | 0.007 | 73
9 | CNC(=O)c1sc(-c2ccnc(NC(=O)C3CC3)c2)nc1OCC1CCN(Cc2ccc(Cl)c(Cl)c2)CC1 | 65 |  | 0.041 | 97
10 | NC(=O)c1sc(-c2ccnc(NC(=O)C3CC3)c2)nc1OCCC1CCN(Cc2ccccc2F)CC1 | 41 |  | 0.261 | 7.8
11 | NC(=O)c1sc(-c2ccnc(NC(=O)C3CC3)c2)nc1O | > 1000 |  | 0.011 | > 1000
12 | NC(=O)c1sc(-c2ccnc(NC(=O)C3CC3)c2)nc1OCCC1CCN(Cc2ccc(F)c(F)c2)CC1 | 7.2 |  | 0.01 | 42.8
13 | CNC(=O)c1sc(-c2ccnc(NC(=O)C3CC3)c2)nc1OCC1CCN(Cc2ccc(Cl)cc2)CC1 | 297 |  | 0.045 | 82
